Data reported in the NIST ThermoML archive (doi:10.1021/je900266h).
Numbers after ± are expanded uncertainties.

Assay: refractive index (Na D-line) (dimensionless); wn = mass fraction of the nth substance listed
Settings: 101 kPa, Liquid, Standard Abbe refractometry

CCO [ethanol] + O
refractive index
Settings | 288.15 K | 298.15 K
w1 = 0.02468 | 1.33491 ± 0.00041 | 1.33402 ± 0.00041
w1 = 0.0538 | 1.33686 ± 0.00041 | 1.33587 ± 0.00041
w1 = 0.07815 | 1.33854 ± 0.00041 | 1.33765 ± 0.00041
w1 = 0.1014 | 1.34032 ± 0.00041 | 1.33915 ± 0.00041
w1 = 0.1249 | 1.34209 ± 0.00041 | 1.34095 ± 0.00041
w1 = 0.1528 | 1.34443 ± 0.00041 | 1.34294 ± 0.00041
w1 = 0.1778 | 1.34627 ± 0.00041 | 1.34475 ± 0.00041
w1 = 0.2036 | 1.34829 ± 0.00041 | 1.34651 ± 0.00041
w1 = 0.225 | 1.34976 ± 0.00041 | 1.34781 ± 0.00041
w1 = 0.247 | 1.35137 ± 0.00041 | 1.34934 ± 0.00041
w1 = 0.2699 | 1.35281 ± 0.00041 | 1.35056 ± 0.00041
w1 = 0.2955 | 1.35435 ± 0.00042 | 1.35212 ± 0.00042
w1 = 0.3241 | 1.35595 ± 0.00042 | 1.35363 ± 0.00042
w1 = 0.3468 | 1.3572 ± 0.00042 | 1.3546 ± 0.00042
w1 = 0.3723 | 1.35843 ± 0.00042 | 1.35567 ± 0.00042
w1 = 0.3959 | 1.3597 ± 0.00042 | 1.35665 ± 0.00042
w1 = 0.4255 | 1.36073 ± 0.00042 | 1.35765 ± 0.00042
w1 = 0.4462 | 1.36161 ± 0.00042 | 1.35831 ± 0.00042
w1 = 0.4735 | 1.36235 ± 0.00042 | 1.35919 ± 0.00042
w1 = 0.4969 | 1.36316 ± 0.00042 | 1.35969 ± 0.00042
w1 = 0.5239 | 1.36378 ± 0.00042 | 1.36042 ± 0.00042
w1 = 0.5458 | 1.36431 ± 0.00042 | 1.36078 ± 0.00042
w1 = 0.5709 | 1.36482 ± 0.00042 | 1.36134 ± 0.00042
w1 = 0.5972 | 1.36547 ± 0.00042 | 1.36186 ± 0.00042
w1 = 0.6203 | 1.36582 ± 0.00042 | 1.36199 ± 0.00042
w1 = 0.6467 | 1.36603 ± 0.00042 | 1.36243 ± 0.00042
w1 = 0.6694 | 1.36636 ± 0.00042 | 1.36263 ± 0.00042
w1 = 0.6959 | 1.36665 ± 0.00042 | 1.36288 ± 0.00042
w1 = 0.7187 | 1.36663 ± 0.00042 | 1.36306 ± 0.00042
w1 = 0.7494 | 1.36702 ± 0.00042 | 1.36313 ± 0.00042
w1 = 0.7672 | 1.36703 ± 0.00042 | 1.36317 ± 0.00042
w1 = 0.7993 | 1.36694 ± 0.00042 | 1.36318 ± 0.00042
w1 = 0.8187 | 1.36705 ± 0.00042 | 1.3632 ± 0.00042
w1 = 0.8451 | 1.36683 ± 0.00042 | 1.36289 ± 0.00042
w1 = 0.867 | 1.36684 ± 0.00042 | 1.36278 ± 0.00042
w1 = 0.9028 | 1.36637 ± 0.00042 | 1.3623 ± 0.00042
w1 = 0.9235 | 1.36603 ± 0.00042 | 1.36196 ± 0.00042
w1 = 0.9481 | 1.36528 ± 0.00042 | 1.36123 ± 0.00042
w1 = 0.9752 | 1.36454 ± 0.00042 | 1.36037 ± 0.00042
w1 = 1 | 1.36344 ± 0.00042 | 1.35922 ± 0.00042
